In US11382848B2, “Compounds reducing malodour perception and the use thereof” (CHEMCOM S.A., priority 2017, dated 2022):

Columns and labels:
[1] = test system: forskolin-induced, receptor-independent production of cAMP / Luciferase; assay: Forskolin control in cells not expressing the receptor (luciferase assay); format: cell-based; conditions: cells that did not express the receptor, stimulated by forskolin
Procedure: (§1) Briefly, cells were plated on poly-D-lysine-coated 96-well plates (BD Bioscience, Erembodegem-Dorp, Belgium) and transfected with a plasmid containing CRE-luciferase and a plasmid containing OR7D4. Sixteen hours after transfection, the culture medium was replaced by serum-free EMEM containing the tested ligands at a determined concentration. After four hours of incubation at 37° C. degree, cells were lysed and processed for luminescence measurement according to the manufacturer's protocols. Luminescence emission was recorded on a Spectra Max M5 reader (Molecular Devices, Sunnyvale, Calif.). Results were expressed as percentage of the response induced by 10 μM of the adenylate cyclase activator Forskolin.

[2] = test system: perception of androstenone; assay: Alternative sensory test with Tedlar bags and expert panel
Procedure: The test consists, in a first step, in microinjecting androstenone (at 0.6% in ethanol), compound 1 (pure) or androstenone+compound 1 in 10 L Tedlar™ bags specially conceived for gas sampling, previously loaded with a known volume of pure air (from oil free compressor with additional charcoal filters). Than the compound of interest (EtOH solution) is injected with a high accuracy micro-syringe through a septum placed on the tap-valve.
The odour presentation device consists of a cylinder to be filled with clean air. The bag is inserted in the cylinder and connected to a sampling installation in the cylinder by means of a valve. By controlled injection of clean air into the cylinder, the interior pressure is raised and the sampling air is pressed in a controlled manner out of the sample container through the opened valve. This sampling air is transferred to the nose of the corresponding sensory odour panel member by means of a funnel. By this means, each sensory odour panel member receives an identical sample with a standardized volume flow and a constant provision time. The outlet flow rate is between 10-20 L/min (in order to avoid any mixing with ambient air before reaching the nose).
The expert panel is entering the room 15 minutes before starting the test. The basic standard test is a rating in intensity and the use of the closest chemical descriptors according to the following order of presentation:
Each assessor can smell for few seconds. A pause of min. 1 minute is considered between presentations.
The individual rating is done with a resolution of 0.5 on a scale ranging from 0 (no odour) to 5 (saturating odour).

[3] = molecular target: T1, human olfactory receptor OR7D4 (Homo sapiens, UniProt Q8NG98); assay: OR7D4 luciferase gene reporter assay (antagonism of agonist-induced activation); format: cell-based
T1 construct: transfected with a plasmid containing CRE-luciferase and a plasmid containing OR7D4; expressed in transfected cells; host or cells: HEK293T stably expressing olfactory chaperone proteins of the RTP family
T1 sequence (Q8NG98 1-312): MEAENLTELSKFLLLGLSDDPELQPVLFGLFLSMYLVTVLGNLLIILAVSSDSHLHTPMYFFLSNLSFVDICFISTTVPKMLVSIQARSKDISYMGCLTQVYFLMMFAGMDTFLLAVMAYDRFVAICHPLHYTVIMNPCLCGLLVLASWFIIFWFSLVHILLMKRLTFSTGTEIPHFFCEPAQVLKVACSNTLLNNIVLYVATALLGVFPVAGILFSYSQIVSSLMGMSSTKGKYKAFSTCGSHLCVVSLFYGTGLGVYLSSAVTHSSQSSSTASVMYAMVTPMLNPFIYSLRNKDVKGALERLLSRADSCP
Procedure: Cells were maintained in minimal essential medium (EMEM, Lonza) containing 10% fetal bovine serum (M10). HEK293T stably expressing olfactory chaperone proteins from the RTP family as described in WO 2006/002161 (introduced here as a reference) were generated by transfecting HEK293T cells with expression vector containing the chaperone gene sequences and a resistance gene to puromycin, using Lipofectamine 2000. A recombinant cell population was selected by adding 10 μg/ml of puromycin into the culture medium. Monoclonal populations were further obtained by limit dilution procedure. Briefly, a cell suspension was diluted to contain 1 cell per ml and this dilution was dispatched in poly-D-lysine-coated 96 well plates (200 μl of dilution per well). After 5 days of culture, the presence and number of cell colonies per well was checked under a phase contrast microscope. After 5 additional days of culture, wells containing a single colony were harvested and each collected population was amplified independently.
The 5-alpha-androst-16-ene-3-one, used as an agonist of the human olfactory receptor OR7D4 and the tested molecules were diluted at a concentration of 1 mole/litre (M) into dimethyl sulfoxide (DMSO) to generate stock solutions.
For concentration-response analysis, serial dilutions of the tested molecules were prepared from stock solutions in EMEM plated into 96-well plates.
as §1
The ability of the compounds of the invention to inhibit the activity of androstenone on OR7D4 receptor was assessed by the luciferase assay described above.
To determine whether a molecule antagonizes OR7D4, this compound was introduced in the incubation medium of the Luciferase assay described above at a concentration of either 316 μM, 100 μM or 31.6 μM, along with the known activator of the receptor 5α-androst-16-en-3-one at a concentration of 31.6 μM. Molecules were considered as “hits” i.e., as having an antagonist effect on the receptor, if they induced a decrease of at least 50% of the luciferase production elicited upon activation of OR7D4 by 5α-androst-16-en-3-one.
Putative antagonist molecule libraries containing compound 1 and other types of molecules were used to identify antagonist of the receptor OR7D4. The screening campaign was performed on the OR7D4 with a series of 112 putative antagonist molecules. In this screening campaign, compound 1 was identified as a hit.
The compound 1 was further confirmed as antagonist of OR7D4 by performing dose-response analysis using the luciferase assay. Different concentrations of compound 1, ranging from 31.6 nM to 1 mM were tested on HEK293 cell expressing OR7D4 and stimulated with 31.6 μM of 5α-androst-16-en-3-one.
The antagonistic property of compound 1 on OR7D4 was further confirmed by measuring the response of the OR7D4 to 5α-androsta-4,16-dien-3-one in presence of compound 1, using the luciferase assay as describe hereinabove. The observed inhibition was in the same range as the one observed when stimulating the receptor with 5α-androst-16-en-3-one.
To further explore the antagonism on OR7D4, a series of compounds structurally related to compound 1 were synthesized and assessed as antagonists of OR7D4 by dose-response analysis using the luciferase assay. […]

Luciferase activity elicited by 5α-androst-16-en-3-one, dose-response (FIG. 1) ([3]; 31.6 nM to 1 mM compound, HEK293 cell expressing OR7D4 stimulated with 31.6 μM 5α-androst-16-en-3-one): decrease of Luciferase activity
hit in antagonist screening (decrease of at least 50% of the luciferase production) ([3]; compound at 316 μM, 100 μM or 31.6 μM with 5α-androst-16-en-3-one at 31.6 μM, 112 putative antagonist molecules screened): hit
IC50 ([3]; dose-response, luciferase assay, half decrease of the luciferase production obtained without antagonist, androstenone at 31.6 micromolar): 2 µM
IC50 ([3]; response of OR7D4 to 5α-androsta-4,16-dien-3-one in presence of compound): 2.5 µM
Structure (SMILES): CCCCCCC(=C\c1ccccc1)/C=C(\C)C(=O)OCC [Compound 1, ethyl (E)-4-((E)-benzylidene)-2-methyldec-2-enoate]
forskolin-induced production of Luciferase [1]: not affected
typical odour of sweat of Androstenone when smelled in the presence of the compound ([2]; Androstenone + compound 1): completely disappears
intrinsic smell ([2]; compound 1 alone): mushroom
odour intensity ([2]; compound 1 alone compared with androstenone alone): lower than the one of androstenone alone
